Assay results reported in patent US10246455B2, “Histone deacetylase inhibitors” (Taipei Medical University, priority 2014, dated 2019).

How the values were obtained:
C6 glioma cell line [1] = assay: Cell proliferation in C6 glioma in vitro (MTT); type: cell-based; details: rat C6 glioma
Source text: C6 glioma cell line was obtained from American Type Culture Collection.

C6 glioma cell line [2] = assay: Cell death in C6 glioma in vitro (LDH assay); type: cell-based; details: rat C6 glioma, 30 uM, after 3 days
Protocol: Cell death was analyzed by a lactate dehydrogenase (LDH) assay. The culture medium was centrifuged after the experiment and the activity of LDH released into culture media was detected with a LDH cytotoxicity detection kit (Roche). The percentage of cytotoxicity was determined by the equation: [(Experimental group−Control group)/(Triton-100-treated group (100% maximal death)−Control group)]×100%.

[3] = system: human colorectal HCT116 xenograft; assay: In vivo antitumor activity assay, HCT116 xenograft; details: for inhibition of human colorectal HCT116 xenograft growth: day 22 after the first dosing
Source text: The antitumor effect of the two test compounds were examined in mice xenografted with human PC3 prostate cancer cells or HCT116 colorectal cells.
Five million PC3 cells were subcutaneously inoculated into specific pathogen-free male athymic mice (strain BALB/cAnN.Cg-Foxn1nu/CrlNarl) from the National Laboratory Animal Center, Taiwan. Mice were subsequently fed under specific pathogen-free conditions and provided with sterile water and food. When the tumor volume reached 150 to 200 mm^3, mice were assigned to groups randomly and treated with vehicle control or Compound 7 or 5b at 25/50/100 mg/kg. The compound was administered once a day, 5 days/week for 2 weeks (n=6) by oral administration. Tumor volume and body weight change were measured twice a week. At the end of the experiments (day 25 after first dosing), animals were euthanized in a CO2-containing chamber, and the tumors were collected and fixed in formaldehyde. The terminal deoxynucleotidyl transferase-mediated dUTP nick end labeling assay (TUNEL) was conducted for apoptosis detection. Tumor tissue sections were analyzed using a FITC In Situ Cell death detection kit (Roche) and fluorescence microscopy. Tissue treated with DNase was used as the positive control. Green fluorescence labeled nucleus indicates the induction of DNA fragmentation.

[4] = system: human glioblastoma (U87-MG-LucNeo cells) xenograft; assay: Orthotopic tumor size measurement (bioluminescence imaging); type: in vivo, mice; details: Compound 7 25 mg/kg versus SAHA 150 mg/kg and TMZ 25 mg/kg
Source text: Another parallel set of xenografted nude mice treated with drug or vehicle treatment as described above were used in this experiment.

TSGH (gastric carcinoma) = assay: IC50 in human cancer cell lines (inhibiting HDAC): TSGH; details: read-out: IC50, inhibiting HDAC in human cancer cell lines
Protocol: (§2) More specifically, the IC50 values of test compounds were determined by carrying out a fluorimetric histone deacetylase assay following the manufacturer's instructions. For a pan-HDAC assay, HeLa nuclear extracts were used as a source of histone deacetylase (BioVision Inc.). Histone deacetylase isomer inhibition assays were conducted using purified recombinant histone deacetylase proteins of the various isomers (BPS Bioscience Inc.). Reactions were performed in 0.1 mol/L KCl, 20 mmol/L HEPES/NaOH at pH 7.9, 20% glycerol, 0.2 mmol/L DTA, 0.5 mmol/L DTT, and 0.5 mmol/L phenylmethylsulfonylfluoride. […] Reactions were carried out in triplicate for each test compound. Each point represented the mean±SD of replicates.

HSC-3 (oral carcinoma) = assay: IC50 in human cancer cell lines (inhibiting HDAC): HSC-3; details: HSC-3, read-out: IC50, inhibiting HDAC in human cancer cell lines
MCF-7 (breast carcinoma) = assay: IC50 in human cancer cell lines (inhibiting HDAC): MCF-7; details: MCF7, read-out: IC50, inhibiting HDAC in human cancer cell lines
[5] = system: MKN-45 (gastric carcinoma); assay: IC50 in human cancer cell lines (inhibiting HDAC): MKN-45; details: MKN-45, read-out: IC50, inhibiting HDAC in human cancer cell lines
Protocol: as §2

[6] = system: human glioblastoma (U87-MG-LucNeo cells) xenograft; assay: In vivo antitumor activity against human glioblastoma xenograft tumor: survival; details: intracranial U87 xenograft, Compound 7 50-100 mg/kg p.o.; TMZ 50 mg/kg p.o.
Source text: Male athymic nude mice at 5-6 weeks old were obtained from BioLasco (Taiwan) and maintained in a specific-pathogen-free facility. All experimental procedures were approved by the Institute of Animal Care and Use Committee of Taipei Medical University. Each nude mouse was anesthetized with an i.p. injection of xylazine (Sigma) and zolazepam (Zoletil 50, Virbac), and then secured in a stereotaxic frame.

HDAC 1 = HDAC 1 (Homo sapiens, UniProt Q13547); assay: Deacetylase enzyme assay (fluorescence release): HDAC1; type: biochemical; details: 24-hour study
Source text: (§1) Proteins from cells were extracted and subjected to the western blotting analysis. β-Actin was used as an internal control. The deacetylase enzyme assay was based on a homogeneous fluorescence release assay. […] After fluorophore from the deacetylated substrates, fluorescent signal was detected.

HDAC2 = HDAC2 (Homo sapiens, UniProt Q92769); assay: Deacetylase enzyme assay (fluorescence release): HDAC2; type: biochemical; details: 24-hour study
Source text: as §1

HDAC6 = HDAC6 (Homo sapiens, UniProt Q9UBN7); assay: Deacetylase enzyme assay (fluorescence release): HDAC6; type: biochemical; details: 24-hour study
Source text: as §1

[7] = system: K2 (normal: keratinocyte); assay: IC50 against cell lines: K2; details: Homo sapiens, read-out: IC50 ± SD against human cancer cell lines
[8] = system: K6 (normal: keratinocyte); assay: IC50 against cell lines: K6; details: Homo sapiens, read-out: IC50 ± SD against human cancer cell lines
WI-38 (normal: lung) = assay: IC50 against cell lines: WI-38; details: Homo sapiens, WI-38, read-out: IC50 ± SD against human cancer cell lines
[9] = system: Detroit551 (normal: fibroblast); assay: IC50 against cell lines: Detroit551; details: Homo sapiens, Detroit 551, read-out: IC50 ± SD against human cancer cell lines
KB-7D (KB resistant) = assay: IC50 against human cancer cell lines: KB-7D; details: KB7D, read-out: IC50 ± SD against human cancer cell lines
Protocol: as §2

OECM-1 (oral carcinoma) = assay: IC50 against human cancer cell lines: OECM-1; details: OECM1, read-out: IC50 ± SD against human cancer cell lines
[10] = system: DU-145 (prostate carcinoma); assay: IC50 against human cancer cell lines: DU-145; details: DU-145, read-out: IC50 ± SD against human cancer cell lines
Protocol: as §2

KB-VIN10 (KB resistant) = assay: IC50 against human cancer cell lines: KB-VIN10; details: Homo sapiens, KB-VIN10, read-out: IC50 ± SD against human cancer cell lines
[11] = system: LNCaP-R2 (prostate carcinoma); assay: IC50 against human cancer cell lines: LNCaP-R2; details: read-out: IC50 ± SD against human cancer cell lines
[12] = system: MDA-MB-231 (breast carcinoma); assay: IC50 against human cancer cell lines: MDA-MB-231; details: MDA-MB-231, read-out: IC50 ± SD against human cancer cell lines
Protocol: as §2

Sequence of HDAC6 (Q9UBN7 whole entry, species assumed): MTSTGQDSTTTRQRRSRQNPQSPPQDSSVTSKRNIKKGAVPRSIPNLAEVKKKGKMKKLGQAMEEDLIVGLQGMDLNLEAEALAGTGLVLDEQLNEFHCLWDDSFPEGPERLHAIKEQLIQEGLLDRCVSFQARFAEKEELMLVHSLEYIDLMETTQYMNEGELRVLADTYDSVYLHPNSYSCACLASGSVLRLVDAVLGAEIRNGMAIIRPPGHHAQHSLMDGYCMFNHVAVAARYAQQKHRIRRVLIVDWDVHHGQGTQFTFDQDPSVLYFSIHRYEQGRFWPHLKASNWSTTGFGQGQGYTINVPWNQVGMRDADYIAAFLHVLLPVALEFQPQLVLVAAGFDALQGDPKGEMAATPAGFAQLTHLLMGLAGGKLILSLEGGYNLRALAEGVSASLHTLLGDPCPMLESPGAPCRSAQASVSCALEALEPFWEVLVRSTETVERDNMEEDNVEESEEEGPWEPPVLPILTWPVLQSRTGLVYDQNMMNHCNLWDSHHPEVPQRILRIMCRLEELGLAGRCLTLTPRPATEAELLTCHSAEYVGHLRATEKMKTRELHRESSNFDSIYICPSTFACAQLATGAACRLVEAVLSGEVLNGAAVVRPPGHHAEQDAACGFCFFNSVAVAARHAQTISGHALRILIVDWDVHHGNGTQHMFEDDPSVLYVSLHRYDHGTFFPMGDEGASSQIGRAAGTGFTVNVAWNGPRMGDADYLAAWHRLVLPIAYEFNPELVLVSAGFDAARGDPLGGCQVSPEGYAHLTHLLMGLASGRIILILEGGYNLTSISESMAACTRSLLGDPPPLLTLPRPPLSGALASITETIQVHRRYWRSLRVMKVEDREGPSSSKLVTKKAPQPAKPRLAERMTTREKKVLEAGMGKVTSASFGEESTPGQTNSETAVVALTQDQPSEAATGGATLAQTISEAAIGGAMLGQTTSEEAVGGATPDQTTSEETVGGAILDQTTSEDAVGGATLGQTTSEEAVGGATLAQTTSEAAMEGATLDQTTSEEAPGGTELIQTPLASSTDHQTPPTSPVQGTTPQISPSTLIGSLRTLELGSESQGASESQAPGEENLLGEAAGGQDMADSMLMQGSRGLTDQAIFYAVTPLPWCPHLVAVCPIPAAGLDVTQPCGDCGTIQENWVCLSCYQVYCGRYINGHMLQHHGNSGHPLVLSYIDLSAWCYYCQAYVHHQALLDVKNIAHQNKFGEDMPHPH
Sequence of HDAC 1 (Q13547 whole entry, species assumed): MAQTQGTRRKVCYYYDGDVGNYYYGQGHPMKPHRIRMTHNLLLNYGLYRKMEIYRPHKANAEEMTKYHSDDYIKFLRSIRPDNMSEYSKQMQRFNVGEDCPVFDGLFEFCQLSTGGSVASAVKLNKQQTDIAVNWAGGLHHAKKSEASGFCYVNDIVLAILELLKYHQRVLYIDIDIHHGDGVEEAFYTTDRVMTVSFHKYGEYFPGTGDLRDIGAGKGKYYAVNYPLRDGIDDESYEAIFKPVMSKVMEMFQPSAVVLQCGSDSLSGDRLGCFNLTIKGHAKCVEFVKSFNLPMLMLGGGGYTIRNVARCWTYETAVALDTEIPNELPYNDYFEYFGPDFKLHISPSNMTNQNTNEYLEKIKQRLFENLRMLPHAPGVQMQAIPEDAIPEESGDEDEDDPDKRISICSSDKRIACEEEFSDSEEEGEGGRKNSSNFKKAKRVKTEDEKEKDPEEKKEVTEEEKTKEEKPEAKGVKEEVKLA
Sequence of HDAC2 (Q92769 whole entry, species assumed): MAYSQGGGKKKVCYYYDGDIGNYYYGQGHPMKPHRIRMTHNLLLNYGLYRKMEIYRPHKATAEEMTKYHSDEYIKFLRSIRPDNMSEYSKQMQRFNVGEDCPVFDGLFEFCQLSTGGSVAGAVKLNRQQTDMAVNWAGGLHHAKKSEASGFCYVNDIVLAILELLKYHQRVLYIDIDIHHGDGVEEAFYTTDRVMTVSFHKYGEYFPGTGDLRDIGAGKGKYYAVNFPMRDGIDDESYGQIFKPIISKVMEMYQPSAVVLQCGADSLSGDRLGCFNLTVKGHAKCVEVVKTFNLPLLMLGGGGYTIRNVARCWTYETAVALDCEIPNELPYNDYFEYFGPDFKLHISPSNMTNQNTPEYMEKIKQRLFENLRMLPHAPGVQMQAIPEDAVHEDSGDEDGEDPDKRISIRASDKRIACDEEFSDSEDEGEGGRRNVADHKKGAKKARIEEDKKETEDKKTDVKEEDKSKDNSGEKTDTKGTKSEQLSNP

Compound: O=C(/C=C/c1cccc(S(=O)(=O)n2ccc3cccnc32)c1)NO [Compound 7, (E)-3-(3-(1H-Pyrrolo[2,3-b]pyridin-1-ylsulfonyl)phenyl)-N-hydroxyacrylamide]
- inhibition at 30 µM (C6 glioma cell line [1]): ~50%
- induction of cell death (LDH) (C6 glioma cell line [2]): about 100%
- inhibition of human colorectal HCT116 xenograft growth ([3]; 25 mg/kg): 50-60%
- inhibition of human colorectal HCT116 xenograft growth ([3]; 50 mg/kg): 50-60%
- inhibition of human colorectal HCT116 xenograft growth ([3]; 100 mg/kg): 50-60%
- body weight change ([3]; HCT116 xenograft mice, 25, 50 and 100 mg/kg): without causing much body weight change
- tumor size (bioluminescence imaging) [4]: decreased the tumor size more than a higher dose of SAHA (150 mg/kg) or the same dose of TMZ (25 mg/kg)
- IC50 (TSGH (gastric carcinoma)): 2100 ± 110 nM
- IC50 (HSC-3 (oral carcinoma)): 660 ± 120 nM
- IC50 (MCF-7 (breast carcinoma)): 1330 ± 360 nM
- IC50 [5]: 2510 ± 810 nM
- survival [6]: extended survival longer than TMZ

Compound: COc1ccc(S(=O)(=O)N2CCc3cc(/C=C/C(=O)NO)cnc32)cc1 [Compound 5b, (E)-N-hydroxy-3-(1-(4-methoxyphenylsulfonyl)-2,3-dihydro-1H-pyrrolo[2,3-b]pyridin-5-yl)acrylamide]
- concentration inducing inhibition of HDAC 1 (HDAC 1): ≤ 50 nM
- concentration inducing inhibition of HDAC2 (HDAC2): ≤ 50 nM
- concentration inducing inhibition of HDAC6 (HDAC6): about 100 nM
- IC50 [7]: 447 ± 37.3 nM
- IC50 [8]: 545 ± 39 nM
- IC50 (WI-38 (normal: lung)): 272 ± 52.3 nM
- IC50 [9]: 707 ± 64.7 nM
- IC50 (KB-7D (KB resistant)): 139 ± 26.8 nM
- IC50 (OECM-1 (oral carcinoma)): 384 ± 72.1 nM
- IC50 [10]: 90 ± 30 nM
- IC50 (KB-VIN10 (KB resistant)): 85 nM
- IC50 [11]: 100 ± 40 nM
- IC50 [12]: 247 ± 9.3 nM
